Results on 17 compounds are retold here after ChEMBL document CHEMBL1212818, “Polyamines inhibit carbonic anhydrases by anchoring to the zinc-coordinated water molecule” (J Med Chem, 2010).

As a reminder, the pKi is the negative decadic logarithm of the Ki, by convention in mol/L.

pKi: −log10 of the molar value.

Assay [1] deals with Carbonic anhydrase 2 (Homo sapiens, UniProt P00918).
The target of assay [2] is Carbonic anhydrase 14 (Homo sapiens, UniProt Q9ULX7).
Assay [3] concerns the target Carbonic anhydrase 3 (Homo sapiens, UniProt P07451).
The target of assay [4] is Carbonic anhydrase 1 (Homo sapiens, UniProt P00915).
Assay [5] has as its target Carbonic anhydrase 5A, mitochondrial (Homo sapiens, UniProt P35218).
In assay [6] the target is Carbonic anhydrase 7 (Homo sapiens, UniProt P43166).
For assay [7], the target named is T1, Carbonic anhydrase 15 (Mus musculus, UniProt Q99N23).
T1 sequence (Q99N23 whole entry): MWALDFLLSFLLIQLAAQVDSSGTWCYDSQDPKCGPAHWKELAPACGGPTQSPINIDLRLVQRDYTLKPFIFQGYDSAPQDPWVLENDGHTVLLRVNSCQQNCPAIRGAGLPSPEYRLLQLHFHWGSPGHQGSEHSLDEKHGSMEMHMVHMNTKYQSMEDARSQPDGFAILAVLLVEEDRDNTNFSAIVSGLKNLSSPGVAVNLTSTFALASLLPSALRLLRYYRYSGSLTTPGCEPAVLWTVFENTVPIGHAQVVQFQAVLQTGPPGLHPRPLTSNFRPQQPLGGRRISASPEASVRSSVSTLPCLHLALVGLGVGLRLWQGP

Assay [8] deals with Carbonic anhydrase 5B, mitochondrial (Homo sapiens, UniProt Q9Y2D0).
For assay [9], the target named is Carbonic anhydrase 13 (Mus musculus, UniProt Q9D6N1).
The target in assay [10] is Carbonic anhydrase 6 (Homo sapiens, UniProt P23280).
In assay [11] the target is Carbonic anhydrase 4 (Homo sapiens, UniProt P22748).
Assay [12] addresses Carbonic anhydrase 12 (Homo sapiens, UniProt O43570).
For assay [13], the target named is Carbonic anhydrase 9 (Homo sapiens, UniProt Q16790).

Sequence of Carbonic anhydrase 6 (P23280 whole entry): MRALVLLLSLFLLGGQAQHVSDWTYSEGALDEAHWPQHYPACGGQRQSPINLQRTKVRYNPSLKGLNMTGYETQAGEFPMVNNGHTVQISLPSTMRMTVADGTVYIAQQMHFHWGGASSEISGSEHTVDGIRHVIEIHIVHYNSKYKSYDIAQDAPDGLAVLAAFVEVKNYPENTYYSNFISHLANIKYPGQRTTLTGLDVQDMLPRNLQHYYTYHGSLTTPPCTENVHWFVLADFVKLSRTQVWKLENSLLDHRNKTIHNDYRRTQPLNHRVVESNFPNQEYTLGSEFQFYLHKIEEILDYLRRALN
Sequence of Carbonic anhydrase 7 (P43166 whole entry): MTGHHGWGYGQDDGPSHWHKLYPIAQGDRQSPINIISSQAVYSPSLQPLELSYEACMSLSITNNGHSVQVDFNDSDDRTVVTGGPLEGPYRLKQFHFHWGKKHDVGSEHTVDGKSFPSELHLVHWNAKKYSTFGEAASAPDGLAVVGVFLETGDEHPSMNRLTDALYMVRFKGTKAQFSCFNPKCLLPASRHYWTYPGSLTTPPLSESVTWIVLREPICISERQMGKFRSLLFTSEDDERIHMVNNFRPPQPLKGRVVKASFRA
Sequence of Carbonic anhydrase 14 (Q9ULX7 whole entry): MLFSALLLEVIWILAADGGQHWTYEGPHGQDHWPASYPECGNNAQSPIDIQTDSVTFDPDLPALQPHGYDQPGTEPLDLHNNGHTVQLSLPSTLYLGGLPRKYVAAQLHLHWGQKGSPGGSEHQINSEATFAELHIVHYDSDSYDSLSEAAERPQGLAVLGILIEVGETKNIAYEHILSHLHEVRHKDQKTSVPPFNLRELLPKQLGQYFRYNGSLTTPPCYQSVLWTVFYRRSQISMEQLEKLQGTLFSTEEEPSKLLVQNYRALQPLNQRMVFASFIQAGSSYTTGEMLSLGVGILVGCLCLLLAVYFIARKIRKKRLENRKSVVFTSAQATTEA
Sequence of Carbonic anhydrase 5A, mitochondrial (P35218 whole entry): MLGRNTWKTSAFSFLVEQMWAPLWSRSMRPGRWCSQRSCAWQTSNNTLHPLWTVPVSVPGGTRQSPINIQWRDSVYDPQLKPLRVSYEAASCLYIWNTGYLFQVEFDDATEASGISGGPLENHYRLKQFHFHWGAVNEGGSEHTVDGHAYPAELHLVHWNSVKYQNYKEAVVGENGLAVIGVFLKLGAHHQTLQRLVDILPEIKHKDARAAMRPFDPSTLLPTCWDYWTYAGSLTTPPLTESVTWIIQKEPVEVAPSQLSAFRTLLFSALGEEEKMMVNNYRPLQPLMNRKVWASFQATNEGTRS
Sequence of Carbonic anhydrase 5B, mitochondrial (Q9Y2D0 whole entry): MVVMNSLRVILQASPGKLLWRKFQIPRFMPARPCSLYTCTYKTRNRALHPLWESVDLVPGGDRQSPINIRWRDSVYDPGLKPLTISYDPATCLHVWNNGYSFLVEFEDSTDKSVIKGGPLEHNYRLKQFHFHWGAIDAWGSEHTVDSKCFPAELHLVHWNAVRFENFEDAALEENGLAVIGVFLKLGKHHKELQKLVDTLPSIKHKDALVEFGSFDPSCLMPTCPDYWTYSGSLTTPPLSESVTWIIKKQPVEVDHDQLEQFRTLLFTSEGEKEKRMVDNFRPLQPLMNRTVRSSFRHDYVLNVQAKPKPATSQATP
Sequence of Carbonic anhydrase 13 (Q9D6N1 whole entry): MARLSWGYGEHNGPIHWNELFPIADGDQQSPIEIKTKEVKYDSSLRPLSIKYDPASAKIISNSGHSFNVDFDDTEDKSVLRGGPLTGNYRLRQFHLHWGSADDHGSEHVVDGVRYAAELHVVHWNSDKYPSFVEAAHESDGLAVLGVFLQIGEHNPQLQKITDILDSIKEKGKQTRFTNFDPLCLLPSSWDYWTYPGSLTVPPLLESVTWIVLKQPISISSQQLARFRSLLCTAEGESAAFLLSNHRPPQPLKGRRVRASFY
Sequence of Carbonic anhydrase 4 (P22748 whole entry): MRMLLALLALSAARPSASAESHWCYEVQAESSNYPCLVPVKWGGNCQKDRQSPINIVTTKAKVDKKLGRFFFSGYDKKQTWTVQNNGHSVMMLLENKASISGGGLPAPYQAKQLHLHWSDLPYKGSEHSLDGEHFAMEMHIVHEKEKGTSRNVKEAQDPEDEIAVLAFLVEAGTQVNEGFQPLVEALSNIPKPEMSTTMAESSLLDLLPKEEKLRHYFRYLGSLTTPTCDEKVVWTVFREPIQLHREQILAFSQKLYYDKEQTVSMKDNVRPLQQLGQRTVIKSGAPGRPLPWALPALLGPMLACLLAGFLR
Sequence of Carbonic anhydrase 1 (P00915 whole entry): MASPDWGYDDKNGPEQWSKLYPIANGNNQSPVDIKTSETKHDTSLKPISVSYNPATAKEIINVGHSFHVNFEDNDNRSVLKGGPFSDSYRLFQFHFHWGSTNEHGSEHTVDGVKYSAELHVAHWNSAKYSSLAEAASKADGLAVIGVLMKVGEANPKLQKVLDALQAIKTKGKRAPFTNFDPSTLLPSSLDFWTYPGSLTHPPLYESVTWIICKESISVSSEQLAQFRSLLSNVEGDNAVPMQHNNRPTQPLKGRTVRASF
Sequence of Carbonic anhydrase 12 (O43570 whole entry): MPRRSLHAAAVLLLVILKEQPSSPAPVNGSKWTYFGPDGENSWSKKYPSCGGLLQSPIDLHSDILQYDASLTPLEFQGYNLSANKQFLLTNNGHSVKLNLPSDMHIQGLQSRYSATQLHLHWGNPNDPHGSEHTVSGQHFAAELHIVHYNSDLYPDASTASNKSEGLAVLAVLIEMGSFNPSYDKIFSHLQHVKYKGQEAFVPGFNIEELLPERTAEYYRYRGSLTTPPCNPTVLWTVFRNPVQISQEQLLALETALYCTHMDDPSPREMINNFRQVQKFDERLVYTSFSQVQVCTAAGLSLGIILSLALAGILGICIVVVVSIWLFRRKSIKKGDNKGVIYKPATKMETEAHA
Sequence of Carbonic anhydrase 3 (P07451 whole entry): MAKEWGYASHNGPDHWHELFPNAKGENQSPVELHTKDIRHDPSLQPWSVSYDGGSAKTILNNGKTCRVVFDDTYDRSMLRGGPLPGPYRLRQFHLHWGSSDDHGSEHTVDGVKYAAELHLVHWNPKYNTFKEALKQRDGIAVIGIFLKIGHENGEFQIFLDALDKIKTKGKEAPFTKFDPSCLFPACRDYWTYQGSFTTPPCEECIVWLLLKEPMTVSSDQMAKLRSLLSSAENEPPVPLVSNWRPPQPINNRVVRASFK

`NCCCCCN`: the pKi is 4.96 in [1]; 6.30 in assay [2]; 6.30 in [3]; 4.88 in [4]; 7.36 in [5]; 6.38 in assay [6]. Further, the pKi was 6.19 in assay [7]; 6.27 in assay [8]; 6.20 in [9]; 6.13 in [10]; 7.28 in assay [11]; 6.35 in assay [12].

Turning to `CC(C)(C)OC(=O)N(CCCCN(CCCNC(=O)C(F)(F)F)C(=O)OC(C)(C)C)CCCNC(=O)C(F)(F)F`, the pKi was 3.97 in assay [1]; 4.07 in assay [2]; 3.95 in [3]; under 3.30 in assay [4]; 3.90 in [5]; 3.97 in assay [6]. Moreover, the pKi in assay [7] was under 3.30; in [8], 3.99; in [9], 3.75; in [10], 3.98; in assay [11] it was 3.98; in [12] it was 3.76.

On to `NCCNCCCNCCN`, for which the pKi in assay [13] is 4.32; in assay [1], 4.12; in assay [2], 4.44; in assay [3], 4.20; in [4], 3.94; in assay [5] it was 4.30. In addition, the pKi in assay [6] was 4.24; in assay [7], 4.18; in [8], 4.23; in assay [9] it was 4.18; in assay [10] it was 4.28; in assay [11], 4.36. Further, in assay [12], the pKi is 4.17.

`CN(C)CCN(C)CCN(C)CCN(C)C`: the pKi in assay [13] is 6.51; in assay [1], 4.95; in assay [2], 6.13; in assay [3], 6.28; in assay [4] it was under 3.30; in assay [5] it was 7.33. Further, the negative-log Ki (pKi) was 6.14 in assay [6]; 6.12 in [7]; 6.15 in assay [8]; 6.24 in [9]; 6.11 in [10]; 7.28 in assay [11]. In addition, the pKi in assay [12] was 6.28.

As to `NCCNc1cccc2ccccc12`, the pKi was 6.29 in assay [13]; 3.99 in [1]; 6.23 in [2]; 6.38 in [3]; under 3.30 in assay [4]; 7.32 in [5]. For the same compound, the negative logarithm of the Ki (pKi) is 6.44 in assay [6]; 6.24 in [7]; 7.21 in [8]; 6.21 in assay [9]; 6.19 in assay [10]; 7.24 in [11]. This compound also had a pKi in assay [12] of 6.42.

Turning to `O=C(NCCCNCCCCNCCCNC(=O)C(F)(F)F)C(F)(F)F`, the pKi is 4.94 in assay [13]; 4.95 in assay [1]; 5.17 in [2]; 4.94 in [3]; 3.87 in assay [4]; 5.90 in assay [5]. For the same compound, the pKi in assay [6] is 5.96; in assay [7], 3.96; in assay [8], 5.98; in assay [9] it was 4.90; in assay [10], 5.96; in assay [11], 6.94. This compound also showed a pKi in assay [12] of 4.99.

Regarding `O=C(NCCNCCCNCCNC(=O)C(F)(F)F)C(F)(F)F`, the pKi in [13] was 3.93; in assay [1], 3.95; in assay [2] it was 3.90; in [3] it was 4.02; in [4], 3.91; in assay [5] it was 4.21. Moreover, the pKi in assay [6] was 3.97; in assay [7] it was 3.98; in assay [8], 4.27; in [9], 3.88; in assay [10], 3.81; in [11], 3.97. In addition, in assay [12], the pKi is 3.95.

Consider `CC(C)(C)OC(=O)N(CCCN(CCNC(=O)C(F)(F)F)C(=O)OC(C)(C)C)CCNC(=O)C(F)(F)F`, for which the pKi was under 3.30 in [13]; under 3.30 in assay [1]; under 3.30 in [2]; under 3.30 in [3]; under 3.30 in [4]; 3.38 in assay [5]. The pKi in [6] is under 3.30; in [7], under 3.30; in [8], 3.40; in assay [9], under 3.30; in [10], under 3.30; in assay [11], 3.51. In assay [12], this compound showed a pKi of under 3.30.

Regarding `O=C(NCCNCCNCCNC(=O)C(F)(F)F)C(F)(F)F`, the negative logarithm of the Ki (pKi) in assay [13], in assay [1], in assay [2], in assay [3], in assay [4] and in assay [5] was under 3.30 in each case. Besides, the pKi in assay [6], in [7], in assay [8], in assay [9], in assay [10] and in [11] was under 3.30 throughout. The compound also had a pKi in assay [12] of under 3.30.

For `CC(C)(C)OC(=O)N(CCNC(=O)C(F)(F)F)CCN(CCNC(=O)C(F)(F)F)C(=O)OC(C)(C)C`, the pKi in assay [13], in [1], in assay [2], in assay [3], in assay [4] and in assay [5] was under 3.30 each time. Further, the pKi in [6], in [7], in assay [8], in assay [9], in assay [10] and in [11] was under 3.30 each time. In assay [12], this compound had a pKi of under 3.30.

Turning to `CC(=O)NCCNc1cccc2ccccc12`, the pKi was 4.91 in assay [13]; 3.92 in assay [1]; 4.47 in assay [2]; 3.89 in [3]; under 3.30 in [4]; 3.97 in [5]. Further, the pKi was 5.91 in assay [6]; 3.96 in [7]; 3.97 in [8]; 3.90 in assay [9]; 3.96 in assay [10]; 4.91 in assay [11]. Further, the pKi in assay [12] is 4.67.

On to `CC(C)(C)OC(=O)N(CCCN)CCCCN(CCCN)C(=O)OC(C)(C)C`, for which the pKi in assay [13] was 3.84; in [1] it was 3.96; in [2], 3.94; in [3], 3.88; in assay [4], 3.86; in assay [5] it was 3.88. Further, the pKi was 3.97 in assay [6]; 3.63 in assay [7]; 3.97 in [8]; 3.87 in assay [9]; 3.94 in [10]; 3.99 in assay [11]. In assay [12], this compound showed a pKi of 3.78.

In the case of `NCCCCCCN`, the negative logarithm of the Ki (pKi) in assay [13] is 6.39; in [1] it was 4.46; in [2], 6.19; in assay [3] it was 6.22; in assay [4], 4.90; in assay [5], 6.21. Moreover, the pKi in assay [6] is 6.36; in assay [7], 6.18; in [8], 6.24; in assay [9], 6.16; in assay [10] it was 6.14; in assay [11], 6.35. In assay [12], the pKi is 6.43.

With `NCCNCCN`, the negative-log Ki (pKi) in [13] is 4.97; in assay [1] it was 3.93; in assay [2], 5.00; in assay [3], 3.93; in assay [4], 3.38; in assay [5], 3.96. The pKi in assay [6] was 4.92; in assay [7], 3.98; in assay [8], 4.96; in [9], 4.94; in assay [10], 4.94; in [11] it was 3.94. Besides, the pKi in assay [12] was 4.94.

Turning to `Oc1ccccc1` [PHENOL], the pKi in [6], in [8] and in assay [9] was under 3.30 each time.

As to `NCCCCNCCCN` [SPERMIDINE], the pKi was 5.86 in assay [13]; 5.95 in assay [1]; 6.00 in [2]; 4.94 in [3]; 5.85 in assay [4]; 5.91 in [5]. In addition, the pKi is 5.91 in assay [6]; 5.00 in assay [7]; 5.84 in assay [8]; 4.94 in [9]; 5.85 in [10]; 6.95 in assay [11]. The same compound had a pKi in assay [12] of 4.36.

As to `NCCCNCCCCNCCCN` [SPERMINE], the pKi in [13] is 4.88; in assay [2], 6.07; in assay [3] it was 3.78; in [4], 3.64; in assay [5], 6.08; in assay [6] it was 6.15. The pKi in assay [7] was 4.13; in assay [8] it was 6.08; in assay [9], 4.65; in [10], 6.00; in assay [12], 4.56.
